Data set [1] in a line: Pattern of oxidative metabolites in porcine LMs by HR-MS. As to conditions: for Relative peak area of oxidative metabolite: porcine LMs, normalized to the sum of measured peak areas. The class given is in vitro ADME, pig. The procedure: (§1) The kinetics of the phase I metabolism of AOH and AME was investigated by incubating human, rat (both 1 mg protein/mL), and porcine LMs (2 mg protein/mL) with 1, 10, 20, 50, and 100 μM AOH or 1, 10, 20, and 50 μM AME based on the protocol by Al-Subeihi et al.[34] The incubation solution contained a final concentration of 3 mM NADPH and 1 mM ascorbic acid in 200 mM Tris–HCl (pH 7.4). After preincubation (37 °C, 1 min, mixing at 250–300 rpm), the toxin stock was added in a 1:100 dilution, resulting in a total DMSO content of 1% and the desired toxin concentration. DMSO was selected for this assay because it is the least inhibitory of the solvents studied by Busby et al. on CYP1A1,[35] the primary enzyme involved in the hydroxylation of AOH and AME.[26] The well-established solubility of the test compounds in DMSO and DMSO-containing aqueous buffers facilitated laboratory work and ensured consistency with existing literature, thereby improving the comparability of results across studies, including those of Pfeiffer and colleagues.[25] In a preliminary investigation, incubation times of 5 and 10 min were chosen because they fall within the linear range of the transformation rate–time relationship, thereby ensuring initial rate conditions (Figure S1). When the selected incubation time (0–10 min) passed, one part of the sample was pipetted into two parts of ice-cold extraction solvent (acetonitrile–methanol, 1:1, v/v) for reaction termination. Subsequently, the samples were placed into the freezer (−20 °C) for at least an hour, centrifuged (15 min, 18,000g, 4 °C), and further diluted in methanol–water (3:7, v/v) prior to LC–MS measurements. In the solvent control, the toxin was substituted with DMSO in the incubation solution. Control incubations were performed without the cofactor NADPH or with heat-inactivated microsomes (98 °C, 10 min, mixing at 300 rpm).
Pooled high-resolution MS (HR-MS) samples were analyzed on a Vanquish UHPLC system (Thermo Fisher Scientific, Waltham, MA, USA) connected to a dual-pressure linear trap-quadrupole Orbitrap mass analyzer (Velos ETD, Thermo Fisher Scientific, Waltham, MA, USA). The heated ESI interface (source heater temperature: 400 °C) was operated in both positive and negative modes. The mobile and stationary phases were the same as those for the targeted analysis. The column compartment temperature was kept at 40 °C. A multistep gradient was applied at a flow rate of 0.4 mL/min and started with rinsing the column for 1 min at 10% eluent B. Then, the organic content was linearly raised to 100% until the 11th minute. Subsequently, the column was purged with 100% eluent B for two additional minutes. Finally, the initial eluent composition was reset between minutes 13 and 13.5, followed by a 2 min re-equilibration under these conditions, resulting in a total run time of 15.5 min. Data acquisition and evaluation were performed with the software Skyline (v. 21.1.0.146, MacCoss Lab, Department of Genome Sciences, University of Washington, Seattle, WA, USA), XCalibur (v. 2.2SP1.48), and Chromeleon (v. 7.2.6.; both Thermo Fisher Scientific, Waltham, MA, USA).
As no analytical standards are currently available for the hydroxy (OH) metabolites of AOH and AME, an Alternaria reference mixture containing 4-OH-AOH and 4-OH-AME was used to enable associating peaks with their respective phase I metabolites.

Data set [2] can be described thus: Pattern of oxidative metabolites in human LMs by HR-MS. The class given is in vitro ADME. As to conditions: human LMs incubated with AME. The procedure:
as §1
Pooled high-resolution MS (HR-MS) samples were analyzed on a Vanquish UHPLC system (Thermo Fisher Scientific, Waltham, MA, USA) connected to a dual-pressure linear trap-quadrupole Orbitrap mass analyzer (Velos ETD, Thermo Fisher Scientific, Waltham, MA, USA). The heated ESI interface (source heater temperature: 400 °C) was operated in both positive and negative modes. The mobile and stationary phases were the same as those for the targeted analysis. The column compartment temperature was kept at 40 °C. A multistep gradient was applied at a flow rate of 0.4 mL/min and started with rinsing the column for 1 min at 10% eluent B. Then, the organic content was linearly raised to 100% until the 11th minute. Subsequently, the column was purged with 100% eluent B for two additional minutes. […]

A further data set deals with esophageal cells. Set-up: method as in PMID 27422292. As to conditions: cited from earlier work.
A short description of data set [3]: Pattern of oxidative metabolites in rat LMs by HR-MS. The class given is in vitro ADME, Sprague–Dawley rat. As to conditions: rat LMs incubated with AME. The procedure:
The kinetics of the phase I metabolism of AOH and AME was investigated by incubating human, rat (both 1 mg protein/mL), and porcine LMs (2 mg protein/mL) with 1, 10, 20, 50, and 100 μM AOH or 1, 10, 20, and 50 μM AME based on the protocol by Al-Subeihi et al.[34] The incubation solution contained a final concentration of 3 mM NADPH and 1 mM ascorbic acid in 200 mM Tris–HCl (pH 7.4). After preincubation (37 °C, 1 min, mixing at 250–300 rpm), the toxin stock was added in a 1:100 dilution, resulting in a total DMSO content of 1% and the desired toxin concentration. DMSO was selected for this assay because it is the least inhibitory of the solvents studied by Busby et al. on CYP1A1,[35] the primary enzyme involved in the hydroxylation of AOH and AME.[26] The well-established solubility of the test compounds in DMSO and DMSO-containing aqueous buffers facilitated laboratory work and ensured consistency with existing literature, thereby improving the comparability of results across studies, including those of Pfeiffer and colleagues.[25] […]
Pooled high-resolution MS (HR-MS) samples were analyzed on a Vanquish UHPLC system (Thermo Fisher Scientific, Waltham, MA, USA) connected to a dual-pressure linear trap-quadrupole Orbitrap mass analyzer (Velos ETD, Thermo Fisher Scientific, Waltham, MA, USA). […]

The nature of data set [4]: Phase I metabolism kinetics (parent toxin loss) in NADPH-fortified porcine liver microsomes, LC-MS/MS. The class given is in vitro ADME, pig. Conditions: for microsomal CLint: female, Large White, pig, liver microsomes, pH 7.4, porcine LMs, read-out: CLint (intrinsic clearance); for Concentration decrease: porcine LMs. The method, then:
(§2) Pooled human LMs and pooled Sprague–Dawley rat hepatic microsomes, both originating from male donors, were purchased from Sigma-Aldrich (St. Louis, MO, USA) and Gibco, Thermo Fisher Scientific (Waltham, MA, USA), respectively. Porcine LMs were prepared according to an in-house-developed protocol based on the publication of Knights et al.[32] The liver of an approximately four-month-old female “Large White” (or “German Edelschwein”) pig was obtained from a local slaughterhouse. After slaughtering, the liver was placed on ice for about an hour, kept in ice-cold 50 mM tris(hydroxymethyl)aminomethane hydrochloride (Tris–HCl) (pH 7.4) for an additional hour while being transported, and processed immediately.
as §1
(§3) The quantification of selected analytes using external calibration (MS parameters listed in Supporting Information Table S1) was conducted on a high-performance liquid chromatographic system (Dionex UltiMate 3000 UHPLC, Dionex Softron GmbH, Germering, Germany) coupled to a triple quadrupole mass spectrometer (TSQ Vantage, Thermo Fisher Scientific, Waltham, MA, USA), equipped with a heated electrospray ionization (ESI) interface. The applied analytical method is based on Puntscher et al.[28],[36] with slight modifications, which are specified below.
(§4) In brief, the Ascentis Express C18 column (10 cm × 2.1 mm, 2.7 μm, Supelco, Munich, DE), equipped with the Phenomenex SecurityGuard (C18 Cartridges, 4 × 2.0 mm ID, Phenomenex Ltd. Deutschland, Aschaffenburg, Germany), served as the stationary phase. Eluent A was aqueous ammonium acetate (5 mM, pH adjusted to 8.6 with a 25% ammonia solution), and eluent B was methanol. During the first minute, the column was kept at 30% eluent B. Subsequently, the eluent B content was linearly raised to 100% within 6 min. Thereafter, the column was washed with 100% eluent B for 1.5 min. Lastly, the column was re-equilibrated at the initial conditions, reaching an overall run time of 10 min. The autosampler compartment was kept at 10 °C, while the column oven temperature was maintained at 30 °C. […]

Data set [5] can be described thus: Phase I metabolism kinetics (parent toxin loss) in NADPH-fortified rat liver microsomes, LC-MS/MS. The class given is in vitro ADME, Sprague–Dawley rat. Conditions: for microsomal CLint: male, Sprague-Dawley, rat, liver microsomes, pH 7.4, rat LMs, read-out: CLint (intrinsic clearance); for Concentration decrease: rat LMs. The procedure: as §2, §1, §3, §4
(In general: Liver microsomes are vesicles of endoplasmic reticulum, rich in cytochrome P450 enzymes.)

Data set [6] in a line: Phase I metabolism kinetics (parent toxin loss) in NADPH-fortified human liver microsomes, LC-MS/MS. The class given is in vitro ADME. Conditions: for microsomal CLint: human, pH 7.4, human LMs, read-out: CLint (intrinsic clearance). The method, then: as §2, §1, §3, §4
The conditions of data set [7]: oral administration, rats; cited from earlier work.
For data set [8] the following is noted: Caco-2 cell monolayers; cited from earlier work.
Setting [9] is: 10 min incubation with 10 μM AME.
Setting [10] is: Michaelis–Menten model, ratio Vmax/Km.
Setting [11] is: linear regression, lower concentration range.

As for `COc1cc(O)c2c(=O)oc3cc(O)c(O)c(C)c3c2c1` [2-OH-AME], the “relative abundance among phase I metabolites (in words)” value is reported as “main metabolites” in data set [1] (porcine LMs incubated with AME) and “most abundant” in [2]. For the same molecule, the “Relative peak area of oxidative metabolite” value (“Relative peak area” below) in data set [1] (setting [9]) is 30%.

As for `COc1cc(O)c2c(=O)oc3c(O)c(O)cc(C)c3c2c1` [4-OH-AME], the “Relative peak area” value in data set [1] (setting [9]) is recorded as “less than 20%”. In addition, in data set [2], the “relative abundance among phase I metabolites (in words)” value is “most abundant”. Besides, in the data set with esophageal cells, the “genotoxic effects compared with parent compound” value is listed as “less pronounced genotoxic effects”.

Turning to `Cc1cc(O)c(O)c2oc(=O)c3c(O)cc(O)cc3c12` [4-OH-AOH], the “relative abundance among phase I metabolites (in words)” value in data set [1] (porcine LMs incubated with AOH) is “primary oxidative metabolite”. The “Relative peak area” value in data set [1] (10 min incubation with 10 μM AOH) came out at 50%. In the data set on esophageal cells, the “genotoxic effects compared with parent compound” value is given as “less pronounced genotoxic effects”.

Take `COc1cc2c(c(O)c1O)c(=O)oc1cc(O)cc(C)c12` [8-OH-AME]: the “relative abundance among phase I metabolites (in words)” value in data set [3] was “main metabolites”; in data set [2] it was “small amounts”.

Regarding `Cc1cc(O)cc2oc(=O)c3c(O)c(O)c(O)cc3c12` [8-OH-AOH], the “relative abundance among phase I metabolites (in words)” value in [1] (porcine LMs incubated with AOH) is recorded as “small amounts”.

As usually defined, the Km is the concentration of substrate that gives half-maximal velocity. Consider `COc1cc(O)c2c(=O)oc3cc(O)cc(C)c3c2c1` [AME, alternariol 9-O-monomethyl ether], for which the microsomal CLint in [4] (setting [10]) came to 19.5 µL/min/mg; in data set [4] (setting [11]), 19 µL/min/mg; in data set [5] (setting [10]) it was 45.2 µL/min/mg; in data set [5] (setting [11]) it was 46.2 µL/min/mg; in [6] (male, liver microsomes, Michaelis–Menten model, ratio Vmax/Km), 26.3 µL/min/mg; in [6] (male, liver microsomes, linear regression, lower concentration range) it was 15.8 µL/min/mg. The Concentration decrease in data set [4] (1 µM toxin, 5 min) is recorded as 16%; in data set [4] (1 µM toxin, 10 min), 38%; in [4] (10 µM toxin, 5 min), 13%; in [4] (10 µM toxin, 10 min) it was 24%; in data set [4] (20 µM toxin, 5 min) it was 19%; in data set [4] (20 µM toxin, 10 min) it was 30%. Further, the Concentration decrease worked out at 20% in data set [4] (50 µM toxin, 5 min); 27% in [4] (50 µM toxin, 10 min); 28% in [5] (1 µM toxin, 5 min); 43% in data set [5] (1 µM toxin, 10 min); 24% in data set [5] (10 µM toxin, 5 min); 48% in data set [5] (10 µM toxin, 10 min). The Concentration decrease in data set [5] (20 µM toxin, 5 min) worked out at 20%; in data set [5] (20 µM toxin, 10 min) it was 48%; in data set [5] (50 µM toxin, 5 min), 17%; in data set [5] (50 µM toxin, 10 min) it was 48%; in data set [6] (human LMs, 1 µM toxin, 5 min) it was 35%; in data set [6] (human LMs, 1 µM toxin, 10 min) it was 59%. The Concentration decrease is listed as 26% in [6] (human LMs, 10 µM toxin, 5 min); 19% in [6] (human LMs, 10 µM toxin, 10 min); 8% in data set [6] (human LMs, 20 µM toxin, 5 min); 26% in [6] (human LMs, 20 µM toxin, 10 min); 2% in data set [6] (human LMs, 50 µM toxin, 5 min); 47% in data set [6] (human LMs, 50 µM toxin, 10 min). Moreover, the “Vmax (maximum transformation rate)” value in data set [6] (human LMs, within 10 min, Michaelis–Menten model) turned out to be 772 pmol/mg/min. The Km in [6] (male, liver microsomes, pH 7.4, human LMs 1 mg protein/mL, NADPH, within 10 min, Michaelis–Menten model, read-out: Km (Michaelis constant)) came out at 29.4 µM. Also, the absorbed fraction entry in [7] is “less than 10%”. In addition, in data set [8], the intestinal absorption result is “limited intestinal absorption”.

The values are drawn from paper PMC11337205, “Unraveling Interspecies Differences in the Phase I Hepatic Metabolism of Alternariol and Alternariol Monomethyl Ether: Closing Data Gaps for a Comprehensive Risk Assessment” (Chemical Research in Toxicology, 2024).
